Experimental data reported in PubChem BioAssay (NCI).
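How tested: cells in 96-well plates exposed to compound for 48 hours at five concentrations. TGI denotes the concentration required for complete inhibition of growth.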

Assays:
Assay in all cases: growth of human tumour cells (NCI), 48 h
HS 578T breast = system: HS 578T breast
SK-OV-3 ovarian = system: SK-OV-3 ovarian
RPMI-8226 leukemia = system: RPMI-8226 leukemia
MALME-3M melanoma = system: MALME-3M melanoma
SW-620 colon = system: SW-620 colon
MCF7 breast = system: MCF7 breast
SK-MEL-5 melanoma = system: SK-MEL-5 melanoma
NCI/ADR-RES ovarian = system: NCI/ADR-RES ovarian
NCI-H226 lung = system: NCI-H226 lung
BT-549 breast = system: BT-549 breast
A498 renal = system: A498 renal
DU-145 prostate = system: DU-145 prostate
HCT-116 colon = system: HCT-116 colon
U251 CNS = system: U251 CNS
HOP-92 NSCLC = system: HOP-92 NSCLC
PC-3 prostate = system: PC-3 prostate
MDA-MB-231 breast = system: MDA-MB-231 breast
CAKI-1 renal = system: CAKI-1 renal
IGROV1 ovarian = system: IGROV1 ovarian
EKVX NSCLC = system: EKVX NSCLC
SK-MEL-28 melanoma = system: SK-MEL-28 melanoma
A549 NSCLC = system: A549 NSCLC
K-562 leukemia = system: K-562 leukemia
KM12 colon = system: KM12 colon
OVCAR-3 ovarian = system: OVCAR-3 ovarian
NCI-H23 lung = system: NCI-H23 lung
SF-295 CNS = system: SF-295 CNS
MDA-N = system: MDA-N
COLO 205 colon = system: COLO 205 colon
ACHN renal = system: ACHN renal
SN12C renal = system: SN12C renal
M14 melanoma = system: M14 melanoma
786-0 renal = system: 786-0 renal
OVCAR-5 ovarian = system: OVCAR-5 ovarian
SNB-19 CNS = system: SNB-19 CNS
MDA-MB-435 = system: MDA-MB-435
RXF 393 renal = system: RXF 393 renal
SNB-75 CNS = system: SNB-75 CNS
SF-539 CNS = system: SF-539 CNS
SF-268 CNS = system: SF-268 CNS
HOP-62 NSCLC = system: HOP-62 NSCLC
SR leukemia = system: SR leukemia
CCRF-CEM leukemia = system: CCRF-CEM leukemia
OVCAR-8 ovarian = system: OVCAR-8 ovarian
HCC-2998 colon = system: HCC-2998 colon
NCI-H460 lung = system: NCI-H460 lung
HT29 colon = system: HT29 colon
UACC-257 melanoma = system: UACC-257 melanoma
UACC-62 melanoma = system: UACC-62 melanoma
MOLT-4 leukemia = system: MOLT-4 leukemia
SK-MEL-2 melanoma = system: SK-MEL-2 melanoma
NCI-H522 lung = system: NCI-H522 lung
HL-60(TB) leukemia = system: HL-60(TB) leukemia
T-47D breast = system: T-47D breast
UO-31 renal = system: UO-31 renal
HCT-15 colon = system: HCT-15 colon
LOX IMVI melanoma = system: LOX IMVI melanoma
TK-10 renal = system: TK-10 renal
OVCAR-4 ovarian = system: OVCAR-4 ovarian

In the case of `CN(C)c1ccc(/C=C(\NC(=O)c2ccccc2)C(=O)Nc2ccccc2C(=O)O)cc1`, the TGI (HS 578T breast) is reported as greater than 100 µM, the TGI (SK-OV-3 ovarian) is reported as greater than 100 µM and the TGI (RPMI-8226 leukemia) is reported as greater than 100 µM. It also gave a TGI (MALME-3M melanoma) greater than 100 µM, a TGI (SW-620 colon) greater than 100 µM and a TGI (MCF7 breast) greater than 100 µM. It also gave a TGI (SK-MEL-5 melanoma) greater than 100 µM, a TGI (NCI/ADR-RES ovarian) greater than 100 µM and a TGI (NCI-H226 lung) greater than 100 µM. For the same molecule, the TGI (BT-549 breast) was greater than 100 µM, the TGI (A498 renal) was greater than 100 µM and the TGI (DU-145 prostate) was greater than 100 µM. It also gave a TGI (HCT-116 colon) greater than 100 µM, a TGI (U251 CNS) greater than 100 µM and a TGI (HOP-92 NSCLC) greater than 100 µM. The TGI (PC-3 prostate) was greater than 100 µM, the TGI (MDA-MB-231 breast) was greater than 100 µM and the TGI (CAKI-1 renal) was greater than 100 µM. The TGI (IGROV1 ovarian) was greater than 100 µM, the TGI (EKVX NSCLC) was greater than 100 µM and the TGI (SK-MEL-28 melanoma) was greater than 100 µM. It also gave a TGI (A549 NSCLC) greater than 100 µM, a TGI (K-562 leukemia) greater than 100 µM and a TGI (KM12 colon) greater than 100 µM. For the same molecule, the TGI (OVCAR-3 ovarian) was greater than 100 µM, the TGI (NCI-H23 lung) was greater than 100 µM and the TGI (SF-295 CNS) was greater than 100 µM. It also gave a TGI (MDA-N) greater than 100 µM, a TGI (COLO 205 colon) greater than 100 µM and a TGI (ACHN renal) greater than 100 µM. For the same molecule, the TGI (SN12C renal) was greater than 100 µM, the TGI (M14 melanoma) was greater than 100 µM and the TGI (786-0 renal) was greater than 100 µM. The TGI (OVCAR-5 ovarian) was greater than 100 µM, the TGI (SNB-19 CNS) was greater than 100 µM and the TGI (MDA-MB-435) was greater than 100 µM. The TGI (RXF 393 renal) was greater than 100 µM, the TGI (SNB-75 CNS) was greater than 100 µM and the TGI (SF-539 CNS) was greater than 100 µM. The TGI (SF-268 CNS) was greater than 100 µM, the TGI (HOP-62 NSCLC) was greater than 100 µM and the TGI (SR leukemia) was greater than 100 µM. The TGI (CCRF-CEM leukemia) was greater than 100 µM, the TGI (OVCAR-8 ovarian) was greater than 100 µM and the TGI (HCC-2998 colon) was greater than 100 µM. It also gave a TGI (NCI-H460 lung) greater than 100 µM, a TGI (HT29 colon) greater than 100 µM and a TGI (UACC-257 melanoma) greater than 100 µM. For the same molecule, the TGI (UACC-62 melanoma) was greater than 100 µM, the TGI (MOLT-4 leukemia) was greater than 100 µM and the TGI (SK-MEL-2 melanoma) was greater than 100 µM. It also gave a TGI (NCI-H522 lung) greater than 100 µM, a TGI (HL-60(TB) leukemia) greater than 100 µM and a TGI (T-47D breast) greater than 100 µM. The TGI (UO-31 renal) was greater than 100 µM, the TGI (HCT-15 colon) was greater than 100 µM and the TGI (LOX IMVI melanoma) was greater than 100 µM.

For `CN(C)CCCNc1nnc(NCCCN(C)C)c2c(=O)c3sccc3[nH]c12`, the TGI (HS 578T breast) was greater than 88.6 µM, the TGI (SK-OV-3 ovarian) was greater than 100 µM and the TGI (RPMI-8226 leukemia) was 57.2 µM. It also gave a TGI (MALME-3M melanoma) of 35.5 µM, a TGI (SW-620 colon) greater than 72.2 µM and a TGI (MCF7 breast) greater than 100 µM. It also gave a TGI (SK-MEL-5 melanoma) of 16 µM, a TGI (NCI/ADR-RES ovarian) greater than 100 µM and a TGI (NCI-H226 lung) of 39.1 µM. It also gave a TGI (TK-10 renal) greater than 100 µM, a TGI (BT-549 breast) greater than 79 µM and a TGI (A498 renal) greater than 100 µM. It also gave a TGI (DU-145 prostate) greater than 100 µM, a TGI (HCT-116 colon) greater than 33.8 µM and a TGI (U251 CNS) greater than 100 µM. It also gave a TGI (HOP-92 NSCLC) greater than 100 µM, a TGI (PC-3 prostate) greater than 61.4 µM and a TGI (MDA-MB-231 breast) greater than 30.7 µM. It also gave a TGI (CAKI-1 renal) greater than 48.9 µM, a TGI (IGROV1 ovarian) greater than 100 µM and a TGI (EKVX NSCLC) of 65.6 µM. For the same molecule, the TGI (SK-MEL-28 melanoma) was greater than 84.9 µM, the TGI (A549 NSCLC) was greater than 78.9 µM and the TGI (K-562 leukemia) was greater than 34.7 µM. For the same molecule, the TGI (KM12 colon) was greater than 58.3 µM, the TGI (OVCAR-3 ovarian) was greater than 100 µM and the TGI (NCI-H23 lung) was greater than 100 µM. The TGI (SF-295 CNS) was greater than 54 µM, the TGI (MDA-N) was 14.9 µM and the TGI (COLO 205 colon) was greater than 20.2 µM. The TGI (ACHN renal) was greater than 100 µM, the TGI (SN12C renal) was 50.9 µM and the TGI (M14 melanoma) was 23.9 µM. The TGI (786-0 renal) was greater than 49.1 µM, the TGI (OVCAR-5 ovarian) was greater than 85.1 µM and the TGI (SNB-19 CNS) was greater than 100 µM. For the same molecule, the TGI (MDA-MB-435) was greater than 54.7 µM, the TGI (OVCAR-4 ovarian) was 23.2 µM and the TGI (RXF 393 renal) was 42.1 µM. It also gave a TGI (SNB-75 CNS) of 19.6 µM, a TGI (SF-539 CNS) of 30.1 µM and a TGI (SF-268 CNS) of 25.7 µM. For the same molecule, the TGI (HOP-62 NSCLC) was greater than 100 µM, the TGI (SR leukemia) was greater than 30.5 µM and the TGI (CCRF-CEM leukemia) was greater than 50.2 µM. For the same molecule, the TGI (OVCAR-8 ovarian) was greater than 100 µM, the TGI (HCC-2998 colon) was 23.7 µM and the TGI (NCI-H460 lung) was 20.7 µM. The TGI (UACC-257 melanoma) was greater than 100 µM, the TGI (UACC-62 melanoma) was 23.7 µM and the TGI (MOLT-4 leukemia) was 14.4 µM. It also gave a TGI (SK-MEL-2 melanoma) of 37.8 µM, a TGI (NCI-H522 lung) of 17.3 µM and a TGI (HL-60(TB) leukemia) greater than 28.2 µM. For the same molecule, the TGI (T-47D breast) was greater than 51.5 µM, the TGI (UO-31 renal) was 9.15 µM and the TGI (HCT-15 colon) was greater than 91.5 µM. For the same molecule, the TGI (LOX IMVI melanoma) was 54.4 µM.
